From ChEMBL document CHEMBL3638918, “Pyrazole derivatives” (2015)

Tests used:
[1] = biological target: Trace amine-associated receptor 1 (Rattus norvegicus, UniProt Q923Y9); assay: Nonspecific binding was defined as the amount of 3-[H]-(S)-4-[(ethyl-phenyl-amino)-methyl]-4,5-dihydro-oxazol-2-ylamine bound in the presence of 10 uM unlabeled ligand. All compounds were tested at a broad range of concentrations (10 pM to 10 uM) in duplicates. The test compounds (20 ul/well) were transferred into a 96 deep well plate (TreffLab), and 180 ul of HEPES-NaOH (20 mM, pH 7.4) containing MgCl2 (10 mM) and CaCl2 (2 mM) (binding buffer), 300 ul of the radioligand 3[H](S)-4-[(ethyl-phenyl-amino)-methyl]-4,5-dihydro-oxazol-2-ylamine at a concentration of 3.3Kd in nM.; assay type: cell membranes
Trace amine-associated receptor 1 (Rattus norvegicus, UniProt Q923Y9), sequence (Q923Y9 whole entry): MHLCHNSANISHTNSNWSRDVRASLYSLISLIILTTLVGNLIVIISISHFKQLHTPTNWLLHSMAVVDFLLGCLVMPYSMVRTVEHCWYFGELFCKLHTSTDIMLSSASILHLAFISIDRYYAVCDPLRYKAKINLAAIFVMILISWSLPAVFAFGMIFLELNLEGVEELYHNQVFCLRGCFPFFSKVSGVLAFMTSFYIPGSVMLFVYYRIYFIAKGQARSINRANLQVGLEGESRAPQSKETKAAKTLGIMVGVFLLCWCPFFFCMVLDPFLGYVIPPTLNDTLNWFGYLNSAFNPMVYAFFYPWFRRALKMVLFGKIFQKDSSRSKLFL

[2] = biological target: Trace amine-associated receptor 1 (Mus musculus, UniProt Q923Y8); assay: Radioligand Binding: The TAAR1 radioligand 3[H](S)-4-[(ethyl-phenyl-amino)-methyl]-4,5-dihydro-oxazol-2-ylamine (described in WO 2008/098857) was used at a concentration equal to the calculated Kd value, that was usually around 0.7 nM, resulting in the binding of approximately 0.5% of the radioligand and a specific binding representing approximately 70% of the total binding. Nonspecific binding was defined as the amount of 3[H](S)-4-[(ethyl-phenyl-amino)-methyl]-4,5-dihydro-oxazol-2-ylamine bound in the presence of 10 uM unlabeled ligand. All compounds were tested at a broad range of concentrations ([…]) in duplicates.
Trace amine-associated receptor 1 (Mus musculus, UniProt Q923Y8), sequence (Q923Y8 whole entry): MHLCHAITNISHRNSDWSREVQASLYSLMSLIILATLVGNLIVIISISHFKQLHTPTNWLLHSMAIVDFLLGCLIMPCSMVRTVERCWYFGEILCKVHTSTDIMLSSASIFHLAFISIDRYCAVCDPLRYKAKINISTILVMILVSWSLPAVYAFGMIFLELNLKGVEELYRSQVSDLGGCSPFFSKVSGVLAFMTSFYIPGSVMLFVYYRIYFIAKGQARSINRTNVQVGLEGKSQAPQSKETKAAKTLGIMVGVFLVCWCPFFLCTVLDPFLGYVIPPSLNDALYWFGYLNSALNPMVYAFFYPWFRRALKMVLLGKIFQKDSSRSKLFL

COc1cccc(-c2cc(C(=O)Nc3ccc([C@H]4CNCCO4)cc3)n(C)n2)c1
Ki [1]: 8.8 nM | Ki [2]: 6.4 nM
